# Measurements taken from patent US20160022751A1, “NOVEL COMPOSITION FOR TREATING ALZHEIMER'S DISEASE AND IMPROVING COGNITIVE FUNCTION OF ALZHEIMER'S PATIENTS” (GANGNEUNG-WONJU NATIONAL UNIVERSITY INDUSTRY ACADEMY …, priority 2014, published 2016).
# Key:
# caveolin1 [1] = test: Caveolin1 immunocytochemistry in HMO6 cells; type: cell-based, human; conditions: Rg3 5 μg/ml, 24 h, immunocytochemistry (FIG. 20)
# Experimental: FIG. 20 is a fluorescence microscopic image showing a result of immunocytochemical analysis investigating the expression of caveolin and clathrin in HMO6 cells treated with or without Rg3. HMO6 cells were treated with Rg3 (5 μg/ml) for 24 h after plated on chamber slides and then the cells were stained with primary antibodies binding specifically to caveolin and clathrin, respectively and counterstained with DAPI. The length of scale bar represents 10 μm.
# The present inventors investigated whether ginsenosides can induce the expression of SRA, clathrin, caveolin 1, NEP or IDE and the differentiation of neurons actually through immunocytochemical analysis (ICC) and microscopic observations. Specifically, Cultured HMO6 cells were fixed in 4% paraformaldehyde (in 1×PBS) for 15 min, washed twice with 1×PBS supplemented with 100 mM glycine for 5 min, and incubated with permeabilization buffer consisting of 0.1% Triton X-100 (Sigma-Aldrich, USA) in 1×PBS for 30 min at room temperature. Blocking was performed with 1% bovine serum albumin (BSA, Sigma-Aldrich, USA) for 30 min at room temperature. Then, SRA, clathrin, caveolin1, NEP, or IDE mouse monoclonal antibody (1:200; Santa Cruz Biotechnology, USA) was added to 1% BSA in PBS with Tween 20 (PBST) and incubated for 2 h at room temperature. […]
# SRA = SRA mRNA expression in HMO6 human microglial cells (qPCR); type: cell-based; conditions: Rg3-treated HMO6 cells (FIG. 14)
# Experimental: HMO6 human microglial cell line was kindly provided by Dr. SU Kim (Chung-Ang University, Korea). HMO6 cells were grown in Dulbecco's Modified Eagle's Medium (DMEM) (Hyclone, USA) supplemented with 10% fetal bovine serum, 100 U/ml penicillin, and 100 μg/ml streptomycin (Invitrogen, USA). Cultures were maintained under 5% CO2 at 37° C. in tissue culture flasks. Cells were grown to >90% confluency and subjected to no more than 20 cell passages. Medium was changed every 2-3 days. Subconfluent cells were harvested and seeded at a density of 5×10^5 cells or 5×10^6 cells in poly-L-lysine-coated 35-mm or 60-mm culture plates. […]
# (§1) Total RNA extracts from HMO6 cells or perfused brain tissue were prepared using the Trizol method (Invitrogen). cDNA was synthesized from RNA by reverse transcription of 1 μg total RNA using the Improm-II reverse transcription system (Promega, Wis., USA) and oligo dT primers in a total volume of 20 μl. […] Relative sample expression levels were calculated using Rotor-Gene 6000 Series Software 1.7 and were expressed relative to β-actin for mice or glyceraldehyde 3-phosphate dehydrogenase for HMO6 cells and corrected for between-run variability. Data for the experimental samples are expressed as a percentage of the internal control gene. […]
# caveolin1 [2] = test: Caveolin1 mRNA expression in HMO6 human microglial cells (qPCR); type: cell-based; conditions: Aβ42 (5 μM) and/or Rg3 (2.5 or 5 μg/ml), 24 h (FIG. 15A-B)
# Experimental: FIG. 15 is a graph showing a change in the expression of caveolin-1, caveolin-2, clathrin, neprilysin (NEP), insulin-degrading enzyme (IDE) according to treating Aβ and/or ginsenoside Rg3 to HMO6 human microglial cells. HMO6 cells were plated on 35 mm cell culture plates or chamber slides and Aβ42 (5 μM) and/or Rg3 (2.5 or 5 μg/ml) were treated for 24 h. Then, the mRNA expression was determined by quantitative RT-PCR. The expression of caveolin (A-B), clathrin (C) which are endocytosis-related genes and NEP (D) and IDE (E) which are genes encoding Aβ-degrading enzymes were compared depending on the presence or absence of Rg3/Aβ42. The results are shown as mean±SD. * P<0.05, ** P<0.01, *** P<0.001. […]
# as §1
structure (smiles),measurement,setting,value
CC(C)=CCC[C@](C)(O)[C@H]1CC[C@]2(C)[C@@H]1[C@H](O)C[C@@H]1[C@@]3(C)CC[C@H](O[C@@H]4O[C@H](CO)[C@@H](O)[C@H](O)[C@H]4O[C@@H]4O[C@H](CO)[C@@H](O)[C@H](O)[C@H]4O)C(C)(C)[C@@H]3CC[C@]12C [ginsenoside Rg3],caveolin1 expression,caveolin1 [1],highly expressed
same,SRA mRNA expression,SRA,dose-dependently increased
same,caveolin1-mediated Aβ42 endocytosis (caveolin mRNA),caveolin1 [2],promoted Aβ42 uptake into HMO6 cells via a caveolin1 and clathrin-mediated endocytic mechanism
